The structures appear in SMILES notation. pIC50: −log10 of the molar value. Bounds are passed on as bounds.

For this test, the system named is synaptosomal re-uptake of tritiated serotonin. As to the kind of experiment: In vitro inhibition of synaptosomal re-uptake of tritiated serotonin (5-HT uptake inhibition). The class given is biochemical. Here is the method:
Determination of endogenous monoaminergic re-uptake inhibition values both for serotonin and norepinephrine was accomplished using test methods described by P. Skolnick, et al., Br. J. Pharmacology, (1985), 86, pp. 637-644; with only minor modifications. In vitro IC50 (nM) test values were determined for representative compounds of Formula I based on their inhibition of synaptosomal re-uptake of tritiated serotonin. Test data IC50 values lower than 500 nM are considered to reflect activity as an inhibitor of serotonin re-uptake.
In vitro IC50 (nM) test values below 100 nM are designated with ** and those below 10 nM with ***.
As a reminder, the pIC50 is the negative decadic logarithm of the IC50, by convention in mol/L. A high value points to a low IC50. In turn, `CCN(CC)C1CC=C(c2c[nH]c3ccc(C#N)cc23)CC1` (stereo not drawn) [Example 24] had a pIC50 greater than 7.00.

For the molecule `N#CCc1ccc2[nH]cc(C3=CCC(NCCc4ccccc4)CC3)c2c1` (stereo not drawn) [Example 31, 3-[[4-(2-Phenylethyl)amino]-1-cyclohexen-1-yl]-1H-indole-5-acetonitrile], the pIC50 was greater than 7.00.

For the molecule `N#Cc1ccc2[nH]cc(C3=CCC(NCCc4ccc(F)cc4)CC3)c2c1` (stereo not drawn) [Example 33], the pIC50 is greater than 8.00.

The molecule `N#Cc1ccc2[nH]cc(C3=CCC(NCCc4ccccc4F)CC3)c2c1` (stereo not drawn) [Example 32] gave a pIC50 greater than 8.00.

`CN(CCc1ccccc1)C1CC=C(c2c[nH]c3ccc(C#N)cc23)CC1` (stereo not drawn) [Example 29] had a pIC50 greater than 8.00.

For `N#Cc1ccc2[nH]cc(C3=CCC(NCCc4cccc(F)c4)CC3)c2c1` (stereo not drawn) [Example 30], the pIC50 is greater than 8.00.

As to `COc1cccc(CCNC2CC=C(c3c[nH]c4ccc(C#N)cc34)CC2)c1` (stereo not drawn) [Example 35], the pIC50 is greater than 8.00.

Regarding `CN(C)C1CC=C(c2c[nH]c3ccc(C#N)cc23)CC1` (stereo not drawn) [Example 23], the pIC50 was greater than 8.00.

As to `N#Cc1ccc2[nH]cc(C3=CCC(NCCCc4ccccc4)CC3)c2c1` (stereo not drawn) [Example 38], the negative-log IC50 (pIC50) was greater than 8.00.

With `N#Cc1ccc2[nH]cc(C3=CCC(NCCc4cccnc4)CC3)c2c1` (stereo not drawn) [Example 37], the pIC50 is greater than 8.00.

`CC(C)NC1CC=C(c2c[nH]c3ccc(C#N)cc23)CC1` (stereo not drawn) [Example 26] had a pIC50 greater than 7.00.

With `COc1ccccc1CCNC1CC=C(c2c[nH]c3ccc(C#N)cc23)CC1` (stereo not drawn) [Example 34], the pIC50 was greater than 8.00.

With `COc1ccc(CCNC2CC=C(c3c[nH]c4ccc(C#N)cc34)CC2)cc1` (stereo not drawn) [Example 36], the pIC50 is greater than 8.00.

`N#Cc1ccc2[nH]cc(C3=CCC(NCCCCc4ccccc4)CC3)c2c1` (stereo not drawn) [Example 40] gave a pIC50 greater than 8.00.

For `N#Cc1ccc2[nH]cc(C3=CCC(NCC4COc5ccccc5O4)CC3)c2c1` (stereo not drawn) [Example 39], the pIC50 is greater than 8.00.

As for `N#Cc1ccc2[nH]cc(C3=CCC(NCc4ccccc4)CC3)c2c1` (stereo not drawn) [Example 27], the pIC50 is greater than 8.00.

For `CCNC1CC=C(c2c[nH]c3ccc(C#N)cc23)CC1` (stereo not drawn) [Example 41], the pIC50 is greater than 7.00.

As to `N#Cc1ccc2[nH]cc(C3=CCC(NCCc4ccccc4)CC3)c2c1` (stereo not drawn) [Example 28], the pIC50 is greater than 8.00.

Source of the values: patent US5468767A, “Antidepressant 3-(aminocycloalkenyl)-indole-5-nitrile derivatives” (Bristol-Myers Squibb Company, priority 1994, dated 1995).
